Experimental data as given in US20120015967A1, “PYRIMIDINE AND PYRIDINE DERIVATIVES AS POSH AND POSH-AP INHIBITORS” (PROTEOLOGICS, LTD., priority 2007, published 2012).
Read-outs that look alike come from different tables or passages of the source.

How the values were obtained:
[1] = system: HIV-1; assay: Assay for virus release (HIV-1 p24 / VLP release) in Jurkat cells transfected with pNLenv1; assay type: cell-based; details: Human immunodeficiency virus 1, 24 h, VLP release one day after transfection, anti-CA immunoblot
Protocol: The POSH inhibitor Compound 1 was tested for its efficiency of viral budding and GAG expression and processing in treated and untreated Jurkat cells. The concentration of extracellular GAG p24 was used as an indication of viral budding.
Jurkat cells were incubated with Compound 1 for either 1 or 3 days. The next day, cells were transfected with the plasmid pNLenv1 (2 μg/ml). Virus-like particle (VLP) release was determined one day after transfection as follows: the culture medium of virus-expressing cells was collected and centrifuged at 500×g for 10 minutes. The resulting supernatant was passed through a 0.45 μm-pore filter and the filtrate was centrifuged at 14,000×g for 2 hours at 4° C. The corresponding cells were washed three times with phosphate-buffered saline (PBS) and then solubilized by incubation on ice for 15 minutes in lysis buffer containing the following components: 50 mM Hepes-NaOH, (pH 7.5), 150 mM NaCl, 1.5 mM MgCl2, 0.5% NP-40, 0.5% sodium deoxycholate, 1 mM EDTA, 1 mM EGTA and 1:200 dilution of protease inhibitor cocktail (EMD Biosciences, Inc.). […] The CA was detected after incubation with a secondary anti-rabbit horseradish peroxidase-conjugated antibody, and detected by Enhanced Chemi-Luminescence (ECL) (Amersham Biosciences, Corp.) and detected by fluorescence imaging (Typhoon Instrument, Amersham Biosciences, Corp.). […]

[2] = molecular target: T1, hPOSH (Homo sapiens, UniProt Q7Z6J0); assay: HTS TR-FRET assay of POSH autoubiquitination; assay type: biochemical; details: in vitro TR-FRET, GST tagged hPOSH with E1 and UbcH5c; read-out: IC50, inhibition of POSH autoubiquitination
T1 construct: a fused GST-RING subunit of POSH protein and two fluorophore-conjugated detection reagents
T1 sequence (Q7Z6J0 12-53 limits assumed): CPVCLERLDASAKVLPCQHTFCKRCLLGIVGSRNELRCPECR
Protocol: In order to test compounds as inhibitors of POSH, a ubiquitin protein ligase (E3) containing a RING domain that mediates its own ubiquitination in a RING finger-dependent manner in the presence of E1 and E2, a HTS (high-throughput screening) homogeneous TR-FRET (Time-Resolved Fluorescence Resonance Energy Transfer) assay was conducted to monitor POSH autoubiquitination.
The assay employs an ubiquitin-activating enzyme (E1) and an ubiquitin-conjugating enzyme (E2), a fused GST-RING subunit of POSH protein and two fluorophore-conjugated detection reagents, namely anti-GSTXL665 and europium cryptate-labeled ubiquitin. This homogeneous assay is based on FRET between a Eu^3+ cryptate donor and a second fluorescent label (acceptor), allophycocyanin. Allophycocyanin, a 105 kDa phycobiliprotein, is crosslinked to ensure its stability.
The ubiquitination of POSH by ubiquitin cryptate and binding of the anti-GST tagged XL665 brings the fluorophores into close proximity allowing FRET reaction to occur (see diagram).
Self-ubiquitination of hPOSH was determined by homogenous time-resolved fluorescence resonance energy transfer assay (TR-FRET). […]
where: S=actual fluorescence, B=Fluorescence obtained in parallel incubation without cb1-b, C=Fluorescence obtained in reaction without added compounds. […]

[3] = Compound cytotoxicity on uninfected CEM-SS cells (MTS); assay type: cell-based; details: human, read-out: TC50 (concentration resulting in 50% cell death)
Protocol: (§1) Briefly, virus and cells were mixed in the presence of a test compounds and incubated for 6 days. […] Each assay plate contained the following controls: cell control wells (cells only), virus control wells (cells plus virus), compound toxicity control wells (cells plus compound only), compound colorimetric control wells (compound only), as well as the experimental wells (compound plus cells plus virus). Cytoprotection and compound cytotoxicity were assessed by MTS (CellTiter® 96 Reagent, Promega, Madison Wis.) dye reduction, and the IC50 (concentration inhibiting virus replication by 50%), TC50 (concentration resulting in 50% cell death) and a calculated T1 (therapeutic index TC50/IC50) were obtained. Each assay included the HIV reverse transcriptase inhibitor AZT as a positive control.

[4] = system: HIV-1IIIB; assay: HIV cytoprotection assay, CEM-SS cells infected with HIV-1IIIB (MTS); assay type: cell-based; details: for IC50: read-out: IC50 (concentration inhibiting virus replication by 50%)
Protocol: (§2) For the HIV cytoprotection assay, CEM-SS cells were used and the viruses HIV-1IIIB, HIV-1RF, or HIV-2ROD.
as §1

[5] = system: HIV-2ROD; assay: HIV cytoprotection assay, CEM-SS cells infected with HIV-2ROD (MTS); assay type: cell-based
Protocol: as §2, §1

| Structure (SMILES) | IC50 [1] [µM] | IC50 [2] [µM] | CC50 at 6 days ([3]; Table 1 (HIV-1IIIB experiment)) [µM] | Antiviral Index (TI), TC50/IC50 ([4]; HIV-1IIIB, CEM-SS cells) | IC50 ([4]; Human immunodeficiency virus 1, CEM-SS, 144 h) [µM] | CC50 at 6 days ([3]; Table 2 (HIV-2ROD experiment)) [µM] | IC50 ([4]; Human immunodeficiency virus 1, 144 h, HIV-1IIIB, CEM-SS cells, 6 days) [µM] | Antiviral Index (TI), TC50/IC50 [5] | IC50 ([5]; Human immunodeficiency virus 2, 144 h, 6 days, read-out: IC50 (concentration inhibiting virus replication by 50%)) [µM] |
| --- | --- | --- | --- | --- | --- | --- | --- | --- | --- |
| Cc1cc(C)nc(NS(=O)(=O)c2cc(Cl)ccc2Cl)n1 [Compound 1, 2,5-dichloro-N-(4,6-dimethylpyrimidin-2-yl)benzenesulfonamide] | 100 | 12 | > 100 | >1.61 | 62 | – | – | – | – |
| Cc1cc(C)nc(NS(=O)(=O)c2cc(Cl)ccc2Cl)c1 [Compound 2, 2,5-dichloro-N-(4,6-dimethylpyridin-2-yl)benzenesulfonamide] | – | – | 114 | 28.5 | – | 169 | 3.99 | 3.80 | 44.4 |
